Read-outs that look alike come from different tables or passages of the source.

The subject of test [1] is EBV-associated cell lines (nasopharyngeal and gastric cancer cell lines). Description: MTS cell viability assay, IC50 of inhibitors. In kind it is cell-based. To be noted: for IC50: read-out: IC50 (~50% reduction in cell viability); for IC25 value (sub IC50 value): concentration chosen for in vitro combination treatment. The method, then: FIG. 9: Determining the IC50 value of MEK1/2 inhibitors. Representation of the cell viability performed using MTS assay after the indicated cell lines were incubated with 0.1 μM-5 μM of selumatinib (left panel) and trametinib (right panel) for 48 hours. The data are represented as the mean±SD from three independent experiments.
FIG. 14: Determining the IC50 value of JQ1 inhibitors. Representation of the cell viability performed using MTS assay after the indicated cell lines were incubated with 0.5 μM-10 μM of JQ1 for 48 hours. The data are represented as the mean±SD from three independent experiments.
Cell viability assay was performed using the CellTiter 96® AQueous one cell viability assay reagent (Promega, WI, USA) for three biological replicates per EBV-associated cancer cell lines in triplicate. Briefly, the cancer cells (target cells) were plated at a density of 5000 cells per well in an overall media volume of 200 μL on a 96-well tissue-culture plate (BD Falcon™). The effector AdE1-LMPpoly transfected T cells were freshly thawed in RPMI-1640 with 10% FCS and 120 IU/mL of recombinant IL-2 at 37° C. and […]. Post 24 hrs of plating and incubation at 37° C. and […], the effector T cells were mixed to the target cells at a gradient ratio of effector to target (E:T) of 5:1-100:1. The exact number of T cells (To) used per E:T ratio (ET) was independently used as control alongside PBS treated target cells (Es) and sole media (M0). After 24 hrs of incubation at 37° C. and […], MTS was added to each well (1:100 dilution in media) and was incubated for 1 hour following which the plate was centrifuged at 1,200×g at room temperature for 5 min and absorbance of the mixture at an optical density of 490 nm was measured via a microplate reader. The relative cell viability was calculated using the following formula: […]
To determine the upregulation of MAPK pathway in EBV-associated solid cancers, we first identified the IC50 value of MEK1/2 inhibitors (AZD6244 or selumetanib and trematinib) across nasopharyngeal and gastric cancer cell lines (with drug concertation ranging from 0.1 μM-5 μM). […] In the next set of experiments, we wanted to determine the impact of MEK1/2 inhibition in combination with allogeneic EBV-specific T cells on EBV-associated solid cancers. As such, we treated the respective EBV-associated cell lines (both gastric and nasopharyngeal) individually or in combination with MEK1/2 inhibitors (both selumetanib and trematinib) and EBV-specific T cells.
Similarly, we targeted MYC-dependent cancer intrinsic pathway using JQ1 inhibitor by first determining the IC50 value of the inhibitor across nasopharyngeal and gastric cancer cell lines (with drug concertation ranging from 0.5 μM-10 μM). […] To characterized the impact of JQ1 inhibition in combination with allogeneic EBV-specific T cells on EBV-associated cancer cells, we used IC25 value JQ1 (2.5 μM) alongside an effector to target ratio of 25:1 of the respective HLA matched allogeneic EBV-specific T cells in vitro. […] We also performed phenotypic characterization, using flow cytometry, of SNU719 and C666.1 cells after 16 hours of individual and dual treatment in vitro.

The test system of test [2] is SNU719 cells. Description: Xcellegence growth curve (Example 2). To be noted: dual combination with EBV-specific T cells vs individual treatment. In kind it is cell-based.
Method: P-values were calculated using one-way ANOVA: *p<0.05, **p<0.01, ***p<0.001 and ****p<0.0001.
We treated SNU719 cells (gastric cancer cells) with MEK1/2 inhibitor (AZD6244 (or selumetanib) and trematinib) at concentration of 0.5 μM and 1.0 μM respectively, as individual treatment or in combination with EBV-specific T cells (25:1) as effector to target ratio.
Test [3] has as its system SNU719 derived xenograft tumour. As to the kind of experiment: SNU719 xenograft, selumatinib and TIG-001 in vivo. On the set-up: species or system NRG mice. The method, then:
FIG. 19: Assessment of therapeutic efficacy of dual combination of selumatinib and allogeneic EBV-specific cytotoxic T cells in vivo. (A) The impact of the dual combination of selumatinib and allogeneic T cells (TIG-001) on the outgrowth of EBV-positive SNU719 xenografts in NRG mice was assessed. Tumour-bearing mice were treated with two doses of HLA-matched T cells (2×10^7 T cells per dose per mouse indicated by black arrow) and selumatinib (12.5 mg/Kg) orally for continuous 14 days, either individually or in combination. The growth of each xenograft is represented as the mean tumour area±SD from n=9 mice/group. (B) Gross morphology of the tumours isolated from the mice of indicated treatment groups. (C) Representation of tumour weight described in (B) from the mice of indicated treatment groups. The data are represented as the mean±SD from n=3 mice per group. P-values were calculated using one-way ANOVA. (D) Representation of viable percentage of tumour infiltrates observed across individually treated allogeneic T cells (TIG-001) and in combination with selumatinib as determined by CD45, CD3 and CD8 expression using flow cytometry. P-values were calculated using Student T test. (E) Kaplan-Meier overall survival analysis of the mice bearing EBV-associated tumours as described in (A) following individual and combination treatment of selumatinib and allogeneic T cells. The animals' survival (n=6 mice/group) was monitored over the indicated period of time and statistical significance was analysed by log-rank test: ns=not significant, *p<0.05, **p<0.01, ***p<0.001 and ****p<0.0001.
In next set of experiments, we wanted to investigate the effect of the above described small molecules in combination of HLA matched allogeneic EBV-specific T cells in vivo. We used the combination of selumatinib and HLA-matched T cell product (TIG-001) to treat SNU719 derived xenograft tumour model in female NRG mice. Once the xenograft reached the size of ˜25 mm^2, we treated the mice with two infusion of TIG-001 (2×10^7 cells per infusion) individually and in combination with daily dosage selumatinib (12.5 mg/kg), administered orally for 14 days. […] Next, we phenotyped the infiltration of the human origin lymphocytes in these tumours using flow cytometry.

As a reminder, the IC50 is the concentration at which inhibition is half-maximal. Consider `Cc1sc2c(c1C)C(c1ccc(Cl)cc1)=N[C@@H](CC(=O)OC(C)(C)C)c1nnc(C)n1-2` [JQ1], for which, in test [1] (EBV-associated nasopharyngeal and gastric cancer cell lines, MTS assay, 48 hours, compared to NPC43 (EBV-)), the IC50 is roughly 2500 nM. Besides, the “IC25 value (sub IC50 value)” value in test [1] was found to be 2.5 µM.
Take `Cn1cnc2c(F)c(Nc3ccc(Br)cc3Cl)c(C(=O)NOCCO)cc21` [selumetanib]: the IC50 in test [1] (48 h) is roughly 2500 nM. The “IC25 value (sub IC50 value)” value in test [1] amounted to 1 µM. The “rate of cell death (Xcellegence)” value in test [2] is recorded as “faster cell death”. In addition, in test [3] (combination with TIG-001 vs individually treated T cell group), the “number of viable CD45+CD3+CD8+ cells in tumours” value is “significantly more”. Further, the survival rate result in test [3] (dual combination with TIG-001 vs individual treatment group) is on record as “better survival rate”. Moreover, in test [3] (dual combination with TIG-001 vs individual treatment, when control reached 150 mm^2), the “size of the tumours” value is recorded as “significantly smaller”. For the same compound, in test [3] (selumatinib 12.5 mg/kg orally 14 days plus two infusions of TIG-001 (2×10^7 cells) vs individual treatment), the tumour progression entry is on record as “significant reduction”.

(Values after patent publication US20230210984A1, “ADOPTIVE IMMUNOTHERAPY” (The Council of the Queensland Institute of Medical Research, priority 2019, published 2023).)
